# In PMC2932999 (Journal of Medicinal Chemistry, 2010):
# Assays:
# [1] = biological target: N197 Yamagata NA (B/Yamagata/186/05 D197N mutant neuraminidase) (Influenza B virus, UniProt Q38G88, D197N); type: biochemical, influenza B virus B/Yamagata/186/05; settings: read-out: Km for MUNANA
# [2] = biological target: E197 Perth NA (B/Perth/211/2001 D197E mutant neuraminidase) (Influenza B virus, UniProt Q3S340, D197E); type: biochemical, influenza B virus B/Perth/211/2001; settings: read-out: Km for MUNANA
# [3] = system: mutant NAs (B/Perth E197 and B/Yamagata N197); type: biochemical, influenza B virus
smiles,measurement,setting,value
"CC(=O)N[C@H]1[C@H]([C@H](O)[C@H](O)CO)OC(Oc2ccc3c(C)cc(=O)oc3c2)(C(=O)O)C[C@@H]1O (stereo partly shown) [MUNANA, 4-methylumbelliferyl-N-acetylneuraminic acid]",Km,[1],18.8 ± 4.5 µM
same,Km,[2],12.1 ± 3.7 µM
"CCC(CC)[C@H](NC(C)=O)[C@@H]1[C@H](O)[C@@H](C(=O)O)C[C@H]1NC(=N)N [compound 3, peramivir]",slow binding of inhibitor,[3],loss of slow binding
"O=C(O)C1(F)O[C@H]([C@H](O)[C@H](O)CO)[C@H](O)[C@@H](O)C1F (stereo partly drawn) [compound 4, 2,3-difluoro-2-keto-3-deoxy-D-glycero-D-galactononulosonic acid]",resistance of mutant NAs compared to D197 wild type NA,[3],no resistance
